The test system of assay [1] is vWF depolymerizing activity of BAECcm. Nature of the assay: Inhibitor profile of the vWF depolymerizing activity of BAEC conditioned medium. As to conditions: measured by agarose gel electrophoresis or collagen binding; BAECcm treated with agent. The class given is biochemical.
Assay [2] concerns the target purified vWF (Homo sapiens, UniProt P04275). Description: Effect of purified reductants or thiol reagents on the average multimer size of purified vWF (agarose gel electrophoresis). Format: biochemical. More on the design: Purified vWF from human plasma was obtained from the Baker Medical Research Institute; tissue Baker Medical Research Institute, Melbourne; host or cells: human plasma. As to conditions: incubation of vWF with IAM or NEM alone.

Assay [3] has as its target T1, purified human vWF (Homo sapiens, UniProt P04275+P07996).
T1 construct: Purified vWF from human plasma was obtained from the Baker Medical Research Institute; TSP-1 was purified to homogeneity from pooled outdated human platelet concentrates; tissue Baker Medical Research Institute, Melbourne (vWF); host or cells: human plasma (vWF); human platelet concentrates (TSP-1)
Description: ELISA of salt-resistant complexes between TSP-1 and vWF. Format: binding. The text has this: The first step in reduction of a disulfide bond is nucleophilic attack on the substrate disulfide bond by a reductant thiol which results in formation of a disulfide-linked complex between the substrate and the reductant. Release of the reductant from the complex requires nucleophilic attack on the disulfide linkage by another thiol, usually of the reductant. We reasoned that N-ethylmaleimide (NEM, Sigma, St. Louis, Mo.) might trap intermediate covalent complexes of TSP-1 and vWF by blocking the TSP-1 thiol responsible for separating TSP-1 and vWF. Maleimides react rapidly and specifically with cysteine thiols at neutral pH. This prediction was tested by measuring formation of salt-resistant complexes between TSP-1 and vWF and the effect of the thiol-blocking reagent, NEM, on complex formation.
Purified vWF from human plasma was obtained from the Baker Medical Research Institute, Melbourne and was purified according to Booth et at. (1984). The vWF (100 μl of 5 μg per ml in 0.1M NaHCO3, pH 8.3 buffer) was adsorbed to Nunc PolySorp 96 well plates overnight at 4° C. in a humid environment. […] Wells were washed three times with Hepes buffer and the peroxidase detected as described previously (Favaloro et al., 1991). […]

The conditions of assay [4]: pH 8; cited from earlier work.
Assay [5] concerns the target T2, vWF (Homo sapiens, UniProt P04275).
T2 construct: from tissue; host or cells: plasma of a TTP patient (vWF); human platelet concentrates (TSP-1)
Nature of the assay: Reduction in average multimer size of vWF in TTP plasma (agarose gel, collagen binding/vWF antigen). Format: biochemical. As to conditions: plasma from a patient with TTP. As to the method:
TTP plasma was incubated with 20 mM Hepes, 0.14M NaCl, 1 mM CaCl2, 1 mM MgCl2, pH 7.4 buffer, conditioned media of HMEC-1 cells or the Hepes buffer containing TSP-1 for 1 or 24 hours at 37° C. Aliquots of the reactions were diluted 10-fold in the Hepes buffer and assayed for collagen binding affinity and vWF antigen as described by Favaloro et al. (1991). On some occasions, aliquots of the reactions were resolved on 1% agarose gel electrophoresis (Ruggeri and Zimmerman, 1980), transferred to PVDF membrane (DuPont NEN, Boston, Mass.), blotted with 2 μg per ml of horse radish peroxidase conjugated anti-vWF polyclonal antibodies (DAKO Corporation, Carpinteria, Calif.) and visualized using chemiluminescence (DuPont NEN, Boston, Mass.).
TSP-1 is a major component of platelet α-granules which is secreted upon platelet activation and aggregation. TSP-1 was purified to homogeneity from pooled outdated human platelet concentrates (Murphy-Ullrich and Mosher. 1985; Hogg et al., 1997) and tested for vWF reductase activity. Buffers containing 0.1 mM CaCl2 were used throughout the chromatographic purification of TSP1. […] In particular, the very large multimers were lost (see bracket in FIG. 3A). […] TSP-1-mediated reduction in vWF multimer size was concentration- and time-dependent (FIG. 3B). Three different preparations of platelet TSP-1 had the same vWF reducing activity (not shown). It is noteworthy that the molar ratio of TSP-1 to vWF influenced the extent of reduction in vWF multimer size (FIG. 3B). The vWF reductase activity in endothelial cell conditioned medium is inhibited by EDTA. In accordance with this observation, chelation of Ca^2+ with EDTA ablated the vWF reductase activity of TSP-1 (not shown).

Assay [6] deals with T3, plasma vWF (Mus musculus, UniProt Q8CIZ8).
T3 construct: from tissue; host or cells: plasma of Balb c mice (in vivo)
Nature of the assay: Reduction in the average multimer size of vWF by TSP-1 in vivo. As to conditions: Balb c mice; 1 mg per kg intraperitoneal; plasma 24 hours later; p<0.05 vs buffer vehicle. As to the method: The ability of TSP-1 to reduce the average multimer size of vWF in vivo was examined by administering TSP-1 to mice via intraperitoneal injection and measuring the consequence for the average multimer size of plasma vWF. Balb c mice (7 to 9 weeks of age) were administered either buffer vehicle (n=4) or 1 mg per kg purified human platelet TSP-1 (n=4) via 0.1 ml intraperitoneal injections. There were 2 male and 2 female mice in each group. Blood was collected by cardiac puncture into EDTA 24 hours later and the plasma was analyzed in triplicate for vWF antigen levels and collagen binding affinity.

T3 sequence (Q8CIZ8 764-2813 limits assumed): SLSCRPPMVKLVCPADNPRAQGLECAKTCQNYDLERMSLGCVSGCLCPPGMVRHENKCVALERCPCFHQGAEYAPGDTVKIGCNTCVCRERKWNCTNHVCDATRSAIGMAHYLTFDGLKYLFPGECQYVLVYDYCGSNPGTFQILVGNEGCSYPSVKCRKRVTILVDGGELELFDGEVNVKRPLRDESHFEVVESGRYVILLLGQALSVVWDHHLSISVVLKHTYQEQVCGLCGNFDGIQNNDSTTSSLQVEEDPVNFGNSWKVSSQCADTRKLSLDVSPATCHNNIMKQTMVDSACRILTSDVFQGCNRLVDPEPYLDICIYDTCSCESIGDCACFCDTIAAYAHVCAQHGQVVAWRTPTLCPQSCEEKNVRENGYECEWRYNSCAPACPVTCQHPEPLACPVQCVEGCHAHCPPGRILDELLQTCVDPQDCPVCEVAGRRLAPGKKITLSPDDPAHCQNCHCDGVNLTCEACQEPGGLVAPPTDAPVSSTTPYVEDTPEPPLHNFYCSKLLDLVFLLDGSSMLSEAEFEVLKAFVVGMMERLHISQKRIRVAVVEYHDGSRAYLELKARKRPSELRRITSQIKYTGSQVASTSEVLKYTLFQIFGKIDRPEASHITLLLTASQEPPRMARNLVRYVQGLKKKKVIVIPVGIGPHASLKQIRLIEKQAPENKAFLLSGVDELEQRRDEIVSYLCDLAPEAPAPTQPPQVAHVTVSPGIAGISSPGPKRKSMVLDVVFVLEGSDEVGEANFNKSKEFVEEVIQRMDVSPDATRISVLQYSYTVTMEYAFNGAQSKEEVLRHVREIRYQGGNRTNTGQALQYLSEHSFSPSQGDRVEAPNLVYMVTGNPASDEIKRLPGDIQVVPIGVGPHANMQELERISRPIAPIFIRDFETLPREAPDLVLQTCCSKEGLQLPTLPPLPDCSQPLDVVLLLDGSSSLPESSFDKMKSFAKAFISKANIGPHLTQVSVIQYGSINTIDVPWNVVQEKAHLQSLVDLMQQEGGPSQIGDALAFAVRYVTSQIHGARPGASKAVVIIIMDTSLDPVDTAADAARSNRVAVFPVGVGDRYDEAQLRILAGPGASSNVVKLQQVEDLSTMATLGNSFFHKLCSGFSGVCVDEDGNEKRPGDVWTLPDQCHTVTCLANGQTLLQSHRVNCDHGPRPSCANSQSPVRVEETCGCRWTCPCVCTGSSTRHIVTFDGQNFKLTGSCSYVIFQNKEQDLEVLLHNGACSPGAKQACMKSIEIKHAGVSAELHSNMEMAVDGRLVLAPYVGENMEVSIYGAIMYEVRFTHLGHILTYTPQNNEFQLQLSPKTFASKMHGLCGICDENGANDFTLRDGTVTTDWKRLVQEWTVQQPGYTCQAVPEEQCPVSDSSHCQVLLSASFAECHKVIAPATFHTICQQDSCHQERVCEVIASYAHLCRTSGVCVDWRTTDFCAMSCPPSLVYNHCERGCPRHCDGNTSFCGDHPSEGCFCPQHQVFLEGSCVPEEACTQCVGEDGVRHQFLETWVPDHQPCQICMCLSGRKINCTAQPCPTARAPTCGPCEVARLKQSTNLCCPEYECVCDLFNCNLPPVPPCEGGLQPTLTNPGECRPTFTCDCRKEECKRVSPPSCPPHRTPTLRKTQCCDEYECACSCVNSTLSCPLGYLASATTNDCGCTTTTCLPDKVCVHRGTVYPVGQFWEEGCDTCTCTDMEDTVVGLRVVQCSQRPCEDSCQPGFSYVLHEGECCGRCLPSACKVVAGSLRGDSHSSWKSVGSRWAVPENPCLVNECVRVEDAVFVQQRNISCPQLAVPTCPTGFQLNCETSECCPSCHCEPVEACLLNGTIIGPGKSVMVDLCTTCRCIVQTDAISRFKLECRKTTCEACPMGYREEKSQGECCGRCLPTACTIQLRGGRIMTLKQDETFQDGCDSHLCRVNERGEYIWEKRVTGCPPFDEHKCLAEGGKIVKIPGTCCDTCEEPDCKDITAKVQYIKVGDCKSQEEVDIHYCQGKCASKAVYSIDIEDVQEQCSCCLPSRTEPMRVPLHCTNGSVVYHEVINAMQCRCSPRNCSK

In the case of `CCN1C(=O)C=CC1=O` [NEM, N-ethylmaleimide], the “effect on vWF depolymerizing activity of BAECcm” value in assay [1] was “inactivated”. Moreover, in assay [2], the “effect on average multimer size of vWF” value was “did not have any discernible effect”. Moreover, in assay [3] (5 or 20 mM NEM, TSP-1 0 to 10 μg per ml, 30 minutes at room temperature, 1M NaCl wash), the “fold more TSP-1 bound to vWF in the presence of NEM” value is “Up to 8 fold”. In assay [4], the “second order rate constant of reaction with free thiols” value was ~10^4 M^−1s^−1.
Consider thrombospondin-1 [TSP-1], for which, in assay [5] (37° C., agarose gel electrophoresis), the “effect on average multimer size of vWF” value is on record as “reduced the average multimer size of vWF”. The “effect on affinity of vWF for collagen” value in assay [5] (collagen binding relative to vWF antigen) is given as “decrease in affinity of vWF for collagen”. The “CBA/vWFAg (average multimer size of plasma vWF)” value in assay [6] is recorded as 0.83±0.05. The “binding of TSP-1 to wells not coated with vWF” value in assay [3] (10 μg per ml TSP-1, wells blocked with BSA) was “no binding”.
